# Laboratory results: US20170135981A1, “Method for Suppressing Glucagon Secretion of an SGLT2 Inhibitor” (AstraZeneca AB, priority 2014, published 2017)
# Tested on: glucagon secretion
# Experiment: Plasma glucagon during a liquid meal tolerance test (MTT) at week 24, radioimmunoassay, randomized 24-week study
# Assay type: in vivo, human
# Conditions: summary of Table 1, added to metformin
# Method: At the beginning of a 4-week lead-in period, all patients were switched to the nearest metformin XR dose (1,500-2,000 mg/day) for the lead-in period and for the duration of the 24-week treatment period. Patients were then randomized to receive saxagliptin 5 mg/day and dapagliflozin 10 mg/day plus metformin (SAXA+DAPA+MET), saxagliptin 5 mg/day and placebo plus metformin (SAXA+MET), or dapagliflozin 10 mg/day and placebo plus metformin (DAPA+MET) for 24 weeks. Patients were prohibited from receiving other antidiabetic medications (except for open-label rescue medications) during the screening and treatment periods. Postprandial glucose (PPG) was assessed at baseline and week 24 following the administration of a liquid meal tolerance test (MTT, 360-375 kcal; protein, 14-28.2 g; fat, 10.5-14 g; carbohydrates 42-45 g; sugars as a component of carbohydrates, 16.8-22 g, investigation-site dependent). […] The mean change from baseline in the area under the curve from 0 to 180 minutes (AUC0-180 min) was calculated for glucagon obtained during the MTT. Plasma glucagon was measured by radioimmunoassay (LINCO Research, St. Charles, Mo.). AUC0-180 min was calculated based on the trapezoidal rule from model-based estimates of the mean at each time point, including observations prior to rescue. […]
smiles,measurement,value
CCOc1ccc(Cc2cc([C@@H]3O[C@H](CO)[C@@H](O)[C@H](O)[C@H]3O)ccc2Cl)cc1 [dapagliflozin],effect on glucagon levels (in words),increased compared to control
